Assays:
[1] = Double Williamson ether macrocyclisation of preformed bipyridine precursor with a bis-electrophile, high dilution (previous syntheses); details: the molecule shown is the open-chain precursor; 25-membered ring; DMF; 72.0 h; cited from earlier work
[2] = Ni-mediated reductive aryl-aryl (2-halopyridine) homo/cross-coupling forming the 2,2'-bipyridine C-C bond; [Ni(PPh3)2Br2] 1 eq, PPh3 2 eq, Mn 10 eq, NEt4I 1 eq; slow addition of dihalide over 4 h; details: DMF, 50.0 mM, 50.0 °C

Oc1ccc(-c2cccc(-c3cccc(CCCc4ccc(OCc5ccc(CBr)cc5)cc4)n3)n2)cc1
ring closure, isolated yield [1]: 6%

c1cc2cc(c1)-c1cccc(n1)CCCc1ccc(cc1)OCCCCOc1ccc(cc1)COC2
ring closure, isolated yield ([2]; from Brc1cccc(CCCc2ccc(OCCCCOc3ccc(COCc4cccc(I)c4)cc3)cc2)n1, 26-membered ring, 5.0 h): 24%

c1cc2nc(c1)-c1cccc(n1)-c1ccc(cc1)OCc1ccc(cc1)COc1ccc(cc1)CCC2
ring closure, isolated yield ([2]; from Brc1cccc(CCCc2ccc(OCc3ccc(COc4ccc(-c5cccc(Br)n5)cc4)cc3)cc2)n1, 25-membered ring, 5.0 h): 41%

c1cc2nc(c1)-c1cccc(n1)OCCc1ccc(cc1)OCCCCOc1ccc(cc1)CCO2
ring closure, isolated yield ([2]; from Brc1cccc(OCCc2ccc(OCCCCOc3ccc(CCOc4cccc(Br)n4)cc3)cc2)n1, 26-membered ring, 5.0 h): 65%

c1cc2nc(c1)-c1cccc(n1)CCCc1ccc(cc1)OCCCCOc1ccc(cc1)CCC2 [1a -> 2a]
ring closure, isolated yield ([2]; from Brc1cccc(CCCc2ccc(OCCCCOc3ccc(CCCc4cccc(Br)n4)cc3)cc2)n1, 26-membered ring, 5.0 h): 71%

c1cc2nc(c1)-c1cccc(n1)COCc1ccc(cc1)OCCCCOc1ccc(cc1)COC2 [1b -> 2b]
ring closure, isolated yield ([2]; from Brc1cccc(COCc2ccc(OCCCCOc3ccc(COCc4cccc(Br)n4)cc3)cc2)n1, 26-membered ring, 5.0 h): 70%

c1cc2nc(c1)-c1cccc(n1)COCc1ccc(cc1)OCCCCCCCCCCOc1ccc(cc1)COC2 [1c -> 2c]
ring closure, isolated yield ([2]; from Brc1cccc(COCc2ccc(OCCCCCCCCCCOc3ccc(COCc4cccc(Br)n4)cc3)cc2)n1, 32-membered ring, 5.0 h): 67%

c1cc2nc(c1)-c1cccc(n1)-c1ccc(cc1)OCCOCCOCCOCCOc1ccc-2cc1 [1e -> 2e]
ring closure, isolated yield ([2]; from Brc1cccc(-c2ccc(OCCOCCOCCOCCOc3ccc(-c4cccc(Br)n4)cc3)cc2)n1, 27-membered ring, 5.0 h): 73%

c1cc2nc(c1)-c1cccc(n1)COCc1ccc(cc1)OCCCCOc1ccc(cc1)CCC2 [1f -> 2f]
ring closure, isolated yield ([2]; from Brc1cccc(CCCc2ccc(OCCCCOc3ccc(COCc4cccc(Br)n4)cc3)cc2)n1, 26-membered ring, 5.0 h): 76%

c1cc2nc(c1)-c1cccc(n1)-c1ccc(cc1)OCCCCCCCOc1ccc(cc1)CCC2 [1g -> 2g (DMF-THF 3:1)]
ring closure, isolated yield ([2]; from Brc1cccc(CCCc2ccc(OCCCCCCCOc3ccc(-c4cccc(Br)n4)cc3)cc2)n1, 26-membered ring, 5.0 h): 66%

c1cc2cc(c1)-c1cccc(n1)CCCc1ccc(cc1)OCCCCOc1ccc(cc1)COC2 [1i(Br) dibromo precursor -> 2i]
ring closure, isolated yield ([2]; from Brc1cccc(COCc2ccc(OCCCCOc3ccc(CCCc4cccc(Br)n4)cc3)cc2)c1, 26-membered ring): 16%

c1cc2nc(c1)-c1cccc(n1)COCc1ccc(cc1)OCCCCOc1ccc(cc1)COC2 [S4 (dichloro analogue of 1b) -> 2b]
ring closure, isolated yield ([2]; from Clc1cccc(COCc2ccc(OCCCCOc3ccc(COCc4cccc(Cl)n4)cc3)cc2)n1, 26-membered ring): 56%

From PMC6005271
